Measured values from patent publication US20130324522A1, “INSECT ODORANT RECEPTOR ANTAGONISTS” (THE ROCKEFELLER UNIVERSITY, priority 2010, published 2013).
Like-named read-outs stand apart in the source and are kept apart here.

Legend:
Assay type in all cases: cell-based
[1] = biological target: T1, serotonin receptor (5HT3) (Mus musculus, UniProt P23979); experiment: Ca2+-imaging of stable Flip-In T-Rex cell line 5HT3; details: for inhibition at 4 µM: compound applied at 4 μM, read-out: Percent Inhibition 5HT3
T1 construct: Full-length cDNAs for mosquito (Anopheles gambiae) odorant receptor; expressed in transfected cells
T1 sequence (P23979 24-489): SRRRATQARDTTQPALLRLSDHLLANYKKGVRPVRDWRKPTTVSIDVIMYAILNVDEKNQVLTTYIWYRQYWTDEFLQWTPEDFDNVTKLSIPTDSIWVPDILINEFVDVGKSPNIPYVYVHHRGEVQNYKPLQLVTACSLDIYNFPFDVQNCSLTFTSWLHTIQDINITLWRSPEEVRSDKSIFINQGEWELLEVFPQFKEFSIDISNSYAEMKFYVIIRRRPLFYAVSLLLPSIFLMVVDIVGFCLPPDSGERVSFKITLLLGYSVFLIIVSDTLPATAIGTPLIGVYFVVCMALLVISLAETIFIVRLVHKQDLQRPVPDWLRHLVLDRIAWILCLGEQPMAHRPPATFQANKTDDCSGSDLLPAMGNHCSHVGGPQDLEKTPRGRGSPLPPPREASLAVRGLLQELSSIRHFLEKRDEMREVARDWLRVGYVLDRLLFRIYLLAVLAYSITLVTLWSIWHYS
Experimental: (§1) Full-length cDNAs for mosquito (Anopheles gambiae) odorant receptor (OR1, OR2, OR7, OR8, OR28), and fly (Drosophila melanogaster) odorant receptor (Or47a, Or83b), mouse TRP channel (TRPM8), and mouse serotonin receptor (5HT3) were obtained and subcloned into mammalian expression vectors. The following mammalian expression vectors were used:
Stable cell lines Or47a/Or83b and 5HT3 were generated from Flip-In T-Rex cells. Flip-In T-Rex-based cell lines were cultured in DMEM supplemented with these additional antibiotics: 6 μg/mL blasticidin and 100 μg/mL hygromycin.
Cells were trypsinized and split into 35 mm dishes 1 day before transfection. Confluent cells (60-70%) in 35 mm dishes were co-transfected with 1 μg of Or47a/Or83b plasmid in pcDNA5/FRT/TO/IRES plus the pOG44 plasmid or 1 μg of 5HT3 plasmid in pcDNA5/FRT/TO plus the pOG44 plasmid using lipofectamine 2000. Co-transfection of pOG44 and pcDNA5/FRT/TO/IRES or pcDNA5/FRT/TO allows expression of Flp recombinase and integration of the pcDNA5 plasmid into the genome via the FRT site. After one day of incubation, the transfected cells were transferred into 10 cm dishes with DMEM containing antibiotics: 20 μg/mL of hygromycin and 6 μg/mL of blasticidin. The concentration of Hygromycin was increased to 100 μg/mL when the population of cells became 30-40% confluent. The cells were cultured by changing medium every two days until cell clumps appeared. The clumps were picked and transferred into 96 well plates with DMEM containing 100 μg/mL of Hygromycin and 6 μg/mL of blasticidin. The cells were grown and transferred to 24 well plates, and ligand-evoked calcium increases were tested using the Hamamatsu FDSS6000 real time fluorescence plate reader.
(§2) Stable cell lines were cultured in 10 cm dishes, and confluent cells (70-80%) were trypsinized. 10,000 cells/20 μL were transferred into each well of 384-well plates coated with poly-D-lysine, and cultured for 2 days. For Flip-In T-Rex cells (cell lines expressing Or47a/Or83b and 5HT3), 5 μL of tetracycline (5 μg/mL) were added 1 day before the assay. 20 μL of Ca-4 dye was loaded into each well for 1.5 hr at room temperature in the dark, and the dye-loaded plates were subjected to Ca^2+-imaging using a Hamamatsu FDSS6000 real time fluorescence plate reader. Odorant solutions (9× final concentration) were prepared by dissolving 1M stock solutions into Hank's Buffered Salt Solution (HBSS), and 30 μL of odor solution was transferred to each well in 384-well plates.
(§3) Compounds ([…] in DMSO) were stored in 384-well plates, and last two columns (32 wells total) contained only DMSO. 200 nL of small compounds were transferred into the odorant plates before the assay using the Perkin-Elmer Janus workstation. The odorant plates were spun down to remove air bubbles, and placed on the FDSS6000 plate loader, and 5 μL of odorant solution was applied to the cell plate on the FDSS6000. Ca^2+ increase was monitored with fluorescence at 525 nm by excitation at 485 nm.

OR8/OR7 = OR8/OR7 (Anopheles gambiae, UniProt Q7PUT5+Q7QCC7); experiment: Ca2+-imaging of stable HEK293T cell line OR8/OR7; details: for inhibition at 4 µM: HEK-293T, compound applied at 4 μM, read-out: Percent Inhibition OR8 OR7
Experimental: as §1
Stable cell lines OR1/OR7, OR2/OR7, OR8/OR7, OR10/OR7, OR28/OR7 and TRPM8 were generated from HEK293T cells. HEK293T-based cell lines were cultured in DMEM supplemented with these additional antibiotics: 6 μg/mL blasticidin and 1 μg/mL puromycin, with the exception of the TRPM8 cell lines, which was cultured in DMEM supplemented with 1 μg/mL puromycin.
Cells were trypsinized and split into 35 mm dishes one day before transfection. Confluent cells (60-70%) in 35 mm dishes were transfected with 1 μg of insect OR(X) plasmids in pME18s-bla and 1 μg of OR7-pME18s-puro using lipofectamine 2000. For Anopheles odorant receptors, two plasmids were co-transfected into HEK cells: the ligand-specific receptor (OR1, OR2, OR8, OR28) and the corresponding olfactory co-receptor: OR7. Cell lines containing TRPM8 were transfected with single plasmid.
as §2, §3

mOREG = biological target: T2, mOREG (Mus musculus, UniProt Q920P2); experiment: Ca2+-imaging, control receptor mOREG; details: for inhibition at 4 µM: compound applied at 4 μM, read-out: Percent Inhibition mOREG; for IC50: Table B
T2 sequence (Q920P2 1-313): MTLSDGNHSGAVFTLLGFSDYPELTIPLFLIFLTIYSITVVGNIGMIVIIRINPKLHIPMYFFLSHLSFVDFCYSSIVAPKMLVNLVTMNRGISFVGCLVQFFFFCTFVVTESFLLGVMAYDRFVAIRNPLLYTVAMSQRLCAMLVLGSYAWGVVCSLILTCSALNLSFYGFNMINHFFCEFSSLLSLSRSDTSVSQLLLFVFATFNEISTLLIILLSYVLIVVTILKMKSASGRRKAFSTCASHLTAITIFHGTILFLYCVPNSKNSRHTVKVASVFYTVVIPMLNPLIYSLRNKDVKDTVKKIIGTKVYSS
Experimental: as §2, with “plates. The last two columns of the plate (32 wells total) were used as control wells as follows: • negative control with HBSS buffer (16 wells) • positive control with ligands (16 wells).” for “plates.”
as §3

[2] = ligand serotonin 10 μM, read-out: IC50 5HT3
[3] = ligand 1-octen-3-ol 30 μM, read-out: IC50 OR8 OR7

Chain of OR8/OR7 (Q7QCC7 whole entry): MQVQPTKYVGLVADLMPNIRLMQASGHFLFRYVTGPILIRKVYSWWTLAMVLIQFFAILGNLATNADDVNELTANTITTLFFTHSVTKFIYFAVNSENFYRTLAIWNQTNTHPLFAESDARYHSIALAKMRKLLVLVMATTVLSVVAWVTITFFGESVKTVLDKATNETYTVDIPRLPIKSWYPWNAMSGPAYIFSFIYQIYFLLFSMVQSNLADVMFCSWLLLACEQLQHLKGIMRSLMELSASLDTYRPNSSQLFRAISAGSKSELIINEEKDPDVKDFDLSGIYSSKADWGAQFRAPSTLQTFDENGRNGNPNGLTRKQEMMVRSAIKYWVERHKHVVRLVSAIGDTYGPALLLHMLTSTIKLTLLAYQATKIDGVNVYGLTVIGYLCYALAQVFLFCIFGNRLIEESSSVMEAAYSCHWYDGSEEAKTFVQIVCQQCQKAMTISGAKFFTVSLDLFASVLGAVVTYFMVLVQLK
Chain of OR8/OR7 (Q7PUT5 entry or part of it): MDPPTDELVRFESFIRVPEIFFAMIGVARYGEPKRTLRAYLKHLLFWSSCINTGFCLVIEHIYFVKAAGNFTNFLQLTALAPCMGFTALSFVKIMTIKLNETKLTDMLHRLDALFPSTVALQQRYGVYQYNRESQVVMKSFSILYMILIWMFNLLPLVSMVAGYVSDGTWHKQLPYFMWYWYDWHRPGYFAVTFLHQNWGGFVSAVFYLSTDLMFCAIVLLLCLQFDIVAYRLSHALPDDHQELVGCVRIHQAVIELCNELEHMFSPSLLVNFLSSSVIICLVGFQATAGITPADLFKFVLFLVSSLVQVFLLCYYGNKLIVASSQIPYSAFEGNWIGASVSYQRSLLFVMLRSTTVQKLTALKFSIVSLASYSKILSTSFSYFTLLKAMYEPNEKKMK

| SMILES | inhibition at 4 µM [1] | inhibition at 4 µM (OR8/OR7) | inhibition at 4 µM (mOREG) | IC50 [1, 2] | also measured |
| --- | --- | --- | --- | --- | --- |
| Cc1ccccc1C(=O)N[C@@H]1CCCCC1NC(=O)C1CCN(C(=O)c2cc(C(F)(F)F)cc(C(F)(F)F)c2)CC1 (stereo partly shown) [RU-0045778] | 26 to 50% | < 25% | 26 to 50% | – | – |
| CCNc1nc(NC(C)C)nc(N(C#N)Cc2ccccc2)n1 [RU-0015806] | 51 to 74% | < 25% | < 25% | – | IC50 ([1]; Table B, read-out: IC50 5HT3): > 1 µM |
| Cc1cc(C)c(Cn2ccnc2CN(C(=O)c2ccccc2F)C(C)C)c(C)c1 [RU-0048001] | < 25% | 26 to 50% | 26 to 50% | – | – |
| COc1cccc(NC(=O)CCC2CCN(C(=O)CSc3ccccc3)CC2)c1 [RU-0032474] | < 25% | < 25% | < 25% | – | – |
| CC(C)Nc1nc(Cl)nc(N(C)C(C)C)n1 [RU-T7] | – | – | – | – | IC50 [1]: > 20 µM; IC50 (OR8/OR7): < 2 µM |
| O=C(C1CCCC1)N(Cc1nccn1CCc1c(F)cccc1Cl)C1CC1 [RU-I2] | – | – | – | 2 to 20 µM | IC50 (OR8/OR7; [3]): 2 to 20 µM |
| O=C(c1nccn1Cc1c(F)cccc1Cl)N(CC1CCCC1)C1CC1 [RU-I3] | – | – | – | 2 to 20 µM | IC50 (OR8/OR7; [3]): < 2 µM |
| CCCCCCCC(=O)N1CCCC(C(=O)NC2CCCC[C@H]2NC(=O)c2ccccc2C)C1 (stereo partly shown) [RU-0045756] | < 25% | < 25% | 26 to 50% | – | – |
| O=C(c1cccnc1Cl)N1CCOC(COCc2c(Cl)cccc2Cl)C1 (stereo not shown) [RU-0050372] | < 25% | < 25% | < 25% | – | – |
| O=C(c1cccc(F)c1)N(Cc1c(-c2ccccc2)noc1N1CCCC1)CC1CCCO1 (stereo not shown) [RU-0037434] | 26 to 50% | 51 to 74% | 26 to 50% | – | IC50 (OR8/OR7; Table B, read-out: IC50 OR8): > 1 µM |
| CC(C)CN(Cc1nccn1Cc1c(F)cccc1Cl)C(=O)c1ccc(F)cc1 [RU-0048054] | < 25% | < 25% | < 25% | – | – |
| CCN(CC)c1onc(-c2ccccc2)c1CN(CC1CCCO1)C(=O)c1ccco1 (stereo not shown) [RU-0036855] | < 25% | 26 to 50% | 26 to 50% | – | – |
| N#Cc1ccccc1C(=O)N1CCOC(COCc2c(Cl)cccc2Cl)C1 (stereo not shown) [RU-0050405] | < 25% | 26 to 50% | < 25% | – | – |
| O=C(c1ccco1)N(Cc1ccco1)Cc1nccn1Cc1ccccc1F [RU-0047694] | 26 to 50% | 51 to 74% | < 25% | – | IC50 (OR8/OR7; Table B, read-out: IC50 OR8): 0.1 to 1 µM |
| CCN(CC)c1onc(-c2ccccc2)c1CN(CC1CCCO1)C(=O)c1ccc2c(c1)OCO2 (stereo not shown) [RU-0036875] | 51 to 74% | 51 to 74% | 51 to 74% | – | IC50 ([1]; Table B, read-out: IC50 5HT3): > 1 µM; IC50 (OR8/OR7; Table B, read-out: IC50 OR8): > 1 µM; IC50 (mOREG): > 1 µM |
| CC(C)Nc1nc(Cl)nc(NC(C)C)n1 [RU-T1] | – | – | – | > 20 µM | IC50 (OR8/OR7): > 220 µM |
| COCCN(Cc1nccn1Cc1c(F)cccc1Cl)C(=O)CCc1ccccc1 [RU-0058550] | < 25% | < 25% | 26 to 50% | – | – |

| SMILES | inhibition at 4 µM [1] | inhibition at 4 µM (OR8/OR7) | inhibition at 4 µM (mOREG) | IC50 [1, 2] | also measured |
| --- | --- | --- | --- | --- | --- |
| Cc1cccc(NC(=O)CCC2CCN(C(=O)CCOc3ccccc3)CC2)c1 [RU-0030324] | 26 to 50% | 26 to 50% | 51 to 74% | – | IC50 (mOREG): > 1 µM |
| CCNc1nc(NC(C)C)nc(SC)n1 [RU-T3] | – | – | – | 20 to 50 µM | IC50 (OR8/OR7): 2 to 20 µM |
| COCCN(Cc1c(-c2ccccc2)noc1N(C)C1CCCCC1)C(=O)c1ccccc1OC [RU-0037275] | 26 to 50% | 51 to 74% | 26 to 50% | – | IC50 (OR8/OR7; Table B, read-out: IC50 OR8): > 1 µM |
| COc1ccc(-c2cc(-c3ccccc3)n(C(=O)CN3CCN(Cc4ccccc4)CC3)n2)cc1 [RU-0038795] | 51 to 74% | < 25% | 26 to 50% | – | IC50 ([1]; Table B, read-out: IC50 5HT3): > 1 µM |
| COc1cccc(-c2nnc(SCCCC(=O)N3CCN(C(=O)CC(C)(C)C)C(C)C3)n2-c2ccc(C)cc2)c1 (stereo not shown) [RU-0071818] | < 25% | < 25% | 51 to 74% | – | IC50 (mOREG): > 1 µM |
| CCc1c(C(=O)NCc2cccnc2)cnn1-c1ccccc1 [RU-0048504] | < 25% | < 25% | < 25% | – | – |
| CCNc1nc(Cl)nc(NC(C)C)n1 [RU-T5] | – | – | – | > 20 µM | IC50 (OR8/OR7): < 2 µM |
| CSc1nc(NC(C)C)nc(NC(C)C)n1 [RU-T2] | – | – | – | 2 to 20 µM | IC50 (OR8/OR7): < 2 µM |
| CCN(CC)C(=O)c1cccc(C)c1 [DEET, N,N-diethyl-m-toluamide, reference compound] | – | – | – | > 50 µM | IC50 (OR8/OR7; [3]): > 50 µM |
| CN(Cc1nccn1Cc1c(F)cccc1Cl)C(=O)C1CCCC1 [RU-I5] | – | – | – | 2 to 20 µM | IC50 (OR8/OR7; [3]): 2 to 20 µM |
| CC(C)Nc1nc(NC(C)C)nc(C(F)(F)F)n1 [RU-T8] | – | – | – | – | IC50 [1]: > 20 µM; IC50 (OR8/OR7): 2 to 20 µM |
| Fc1cccc(Cl)c1Cn1ccnc1CN(CC1CCCC1)C1CC1 [RU-I4] | – | – | – | > 20 µM | IC50 (OR8/OR7; [3]): > 220 µM |
| C=CCN(Cc1nccn1Cc1cccc(F)c1)C(=O)c1ccccc1F [RU-I1] | – | – | – | 20 to 50 µM | IC50 (OR8/OR7; [3]): 20 to 50 µM |
| CC(C)Nc1nc(Cl)nc(NCc2ccccc2)n1 [RU-T9] | – | – | – | – | IC50 [1]: > 50 µM; IC50 (OR8/OR7): > 220 µM |
| CCNc1nc(NCC)nc(SC)n1 [RU-T4] | – | – | – | 20 to 50 µM | IC50 (OR8/OR7): 2 to 20 µM |
| Cc1nc(NC(C)C)nc(NC(C)C)n1 [RU-T6] | – | – | – | – | IC50 [1]: > 20 µM; IC50 (OR8/OR7): < 2 µM |
